The source of these data is ChEMBL document CHEMBL4819104, “Discovery of 2-amino-3-amido-5-aryl-pyridines as highly potent, orally bioavailable, and efficacious PERK kinase inhibitors” (Bioorg Med Chem Lett, 2021).

Series [1] deals with T1, Eukaryotic translation initiation factor 2-alpha kinase 3 (Homo sapiens, UniProt Q9NZJ5).
T1 sequence (Q9NZJ5 whole entry): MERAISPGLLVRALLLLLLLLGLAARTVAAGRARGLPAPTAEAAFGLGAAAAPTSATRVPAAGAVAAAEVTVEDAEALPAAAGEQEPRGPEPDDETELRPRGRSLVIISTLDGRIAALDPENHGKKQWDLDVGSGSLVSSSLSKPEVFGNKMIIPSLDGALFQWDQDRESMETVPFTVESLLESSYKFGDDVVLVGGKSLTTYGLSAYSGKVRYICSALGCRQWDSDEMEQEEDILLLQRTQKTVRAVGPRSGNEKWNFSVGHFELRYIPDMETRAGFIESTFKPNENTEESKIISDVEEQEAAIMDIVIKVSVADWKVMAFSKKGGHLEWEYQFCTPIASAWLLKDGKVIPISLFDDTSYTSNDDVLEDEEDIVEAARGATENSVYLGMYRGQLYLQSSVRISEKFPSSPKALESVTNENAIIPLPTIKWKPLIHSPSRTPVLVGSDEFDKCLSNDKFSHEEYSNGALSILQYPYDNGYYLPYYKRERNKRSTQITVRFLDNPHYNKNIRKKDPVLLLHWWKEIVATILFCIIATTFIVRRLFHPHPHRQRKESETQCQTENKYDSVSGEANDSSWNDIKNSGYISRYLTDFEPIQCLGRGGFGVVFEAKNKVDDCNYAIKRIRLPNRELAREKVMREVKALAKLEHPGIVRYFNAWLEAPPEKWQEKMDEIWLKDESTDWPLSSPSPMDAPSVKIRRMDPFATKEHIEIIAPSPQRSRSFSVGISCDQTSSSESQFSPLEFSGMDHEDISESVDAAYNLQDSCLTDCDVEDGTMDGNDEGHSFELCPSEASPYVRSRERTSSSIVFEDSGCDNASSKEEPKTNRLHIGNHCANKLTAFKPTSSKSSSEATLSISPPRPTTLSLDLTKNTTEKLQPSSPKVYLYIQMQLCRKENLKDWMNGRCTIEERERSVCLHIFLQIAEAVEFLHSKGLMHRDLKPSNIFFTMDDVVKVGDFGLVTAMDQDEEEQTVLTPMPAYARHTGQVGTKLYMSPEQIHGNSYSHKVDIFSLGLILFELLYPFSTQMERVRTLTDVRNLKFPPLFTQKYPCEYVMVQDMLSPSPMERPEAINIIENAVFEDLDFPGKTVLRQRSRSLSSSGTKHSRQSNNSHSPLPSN
Kind of series: Inhibition of human His-tagged PERK expressed in Escherichia coli assessed as eIF2alpha phosphorylation by TR-FRET assay. Background: TR-FRET usually uses a lanthanide donor and a delayed reading to cut background.

The nature of series [2]: Aqueous solubility of the compound. Type of series: physicochemical. To be noted: buffer.
Series [3] in a line: Apparent permeability of the compound across apical to basolateral side in human Caco-2 cells. The format is ADME, cell-based. Conditions: read-out: permeability. In general terms: Caco-2 cells form a polarised layer with tight junctions and transporters.
The nature of series [4]: Efflux ratio of apparent permeability in human Caco-2 cells. Type of series: ADME, cell-based.
The nature of series [5]: Plasma protein binding in human. The format is ADME, cell-free. To be noted: read-out: PPB (converted).
The nature of series [6]: Plasma protein binding in rat. The format is ADME, cell-free. Conditions: read-out: PPB (converted).
The nature of series [7]: Plasma protein binding in mouse. Type of series: ADME, cell-free. To be noted: read-out: PPB (converted).
The nature of series [8]: Plasma protein binding in dog. Type of series: ADME, cell-free, Canis lupus familiaris. Conditions: read-out: PPB (converted).
Series [9] can be described thus: Half life in human hepatocytes. Type of series: ADME, cell-based, Hepatocyte.
Series [10] is described as follows: Half life in rat hepatocytes. Type of series: ADME, cell-based, Hepatocyte.
Series [11] can be described thus: Half life in mouse hepatocytes. Type of series: ADME, cell-based, Hepatocyte.
Series [12] can be described thus: Half life in dog hepatocytes. Type of series: ADME, cell-based, Canis lupus familiaris, Hepatocyte.

In brackets after ≈: the same amount, converted by molar mass.

Turning to `Cc1cc(NC(=O)[C@H](O)c2cc(F)cc(F)c2)ccc1-c1cnc(N)c(C(=O)NC(C)(C)C)c1`, in [1], the half-inhibitory concentration (IC50) was determined as 0.033 µM.

Turning to `Cc1cc(NC(=O)Cc2ccccc2)ccc1-c1cnc(N)c(C(=O)NC(C)C)c1`, in series [1], the half-maximal inhibitory concentration (IC50) turned out to be 0.073 µM.

For the compound `Cc1cc(NC(=O)[C@H](O)c2cc(F)cc(F)c2)ccc1-c1cnc(N)c(C(=O)N(C)C)c1`, in [1], the IC50 was found to be 0.599 µM.

On to `Cc1cc(NC(=O)Oc2ccccc2)ccc1-c1cnc(N)c(C(=O)NC(C)C)c1`, for which, in series [1], the IC50 is above 1 µM.

Turning to `CC(C)NC(=O)c1cc(-c2ccc(NC(=O)[C@H](O)c3cc(F)cc(F)c3)cc2F)cnc1N`, the IC50 in [1] stood at 0.017 µM.

For the compound `Cc1cc(NC(=O)[C@H](O)c2cc(F)cc(F)c2)ccc1-c1cnc(N)c(C(=O)OC(C)C)c1`, in [1], the half-maximal inhibitory concentration (IC50) was determined as 0.019 µM.

In the case of `Cc1cccc([C@@H](O)C(=O)Nc2ccc(-c3cnc(N)c(C(=O)NC(C)C)c3)c(C)c2)c1`, the IC50 in series [1] was 0.003 µM.

In the case of `Cc1cc(NC(=O)C(O)c2cc(F)cc(F)c2)ccc1-c1cnc(N)c(C(=O)O)c1` (centres undefined), in series [1], the IC50 is 0.241 µM.

For the compound `Cc1cc(NC(=O)[C@H](O)c2cc(F)cc(F)c2)ccc1-c1ccc(N)nc1`, the 50% inhibitory concentration (IC50) in series [1] amounted to 0.075 µM.

On to `COc1cc(NC(=O)[C@H](O)c2cc(F)cc(F)c2)ccc1-c1cnc(N)c(C(=O)NC(C)C)c1`, for which the IC50 in series [1] was found to be 0.085 µM.

For `Cc1cc(NC(=O)[C@H](O)c2cc(F)cc(F)c2)ccc1-c1cncc(C(=O)NC(C)C)c1`, the half-maximal inhibitory concentration (IC50) in series [1] came to 0.027 µM.

As for `Cc1cc(NC(=O)[C@@H](O)c2cc(F)cc(F)c2)ccc1-c1cnc(N)c(C(=O)NC(C)C)c1`, in series [1], the IC50 is 0.026 µM.

With `CC(C)NC(=O)c1cc(-c2ccc(NC(=O)[C@H](O)c3cc(F)cc(F)c3)cc2Cl)cnc1N`, the IC50 in [1] is 0.009 µM. The amount in solution in series [2] (solubility) came to 13 µM (≈ 6.17 µg/mL). Moreover, the Papp A→B in series [3] came out at 24 ×10⁻⁶ cm/s. In addition, the efflux ratio in series [4] was determined as 2.5. For the same compound, the fraction unbound is 0.003 in series [5], 0.007 in series [6], 0.005 in series [7] and 0.005 in [8]. For the same compound, the half-life in [9] stood at 9.48 h; in [10], 0.2 h; in series [11], 0.4 h; in [12], 7.18 h.

Regarding `CC(C)NC(=O)c1cc(-c2ccc(NC(=O)[C@H](O)c3cc(F)cc(F)c3)cc2)cnc1N`, the IC50 in series [1] is 0.023 µM.

Turning to `CNC(=O)c1nc(-c2ccc(NC(=O)[C@H](O)c3cc(F)cc(F)c3)cc2C)cnc1N`, the IC50 in series [1] came to 0.008 µM.

Take `Cc1cc(NC(=O)[C@H](O)c2cc(F)cc(F)c2)ccc1-c1cnc(C)c(C(=O)NC(C)C)c1`: the IC50 in [1] is 0.068 µM.

For `Cc1cc(NC(=O)[C@H](O)c2cccc(Cl)c2)ccc1-c1cnc(N)c(C(=O)NC(C)C)c1`, the IC50 in series [1] came to 0.003 µM. The compound further displayed a solubility in [2] of 13 µM (≈ 5.89 µg/mL). Also, the Papp A→B in series [3] amounted to 22 ×10⁻⁶ cm/s. In series [4], the efflux ratio is 2.8. The fraction unbound in series [5] was 0.004; in [6], 0.013; in series [7], 0.006; in [8] it was 0.006. In addition, the half-life in [9] is 4.32 h; in series [10], 0.2 h; in series [11], 0.783 h; in series [12], 3.73 h.

With `Cc1cc(NC(=O)[C@@](C)(O)c2ccccc2)ccc1-c1cnc(N)c(C(=O)NC(C)C)c1`, the IC50 in series [1] was 0.159 µM.

In the case of `CCc1cccc([C@@H](O)C(=O)Nc2ccc(-c3cnc(N)c(C(=O)NC(C)C)c3)c(C)c2)c1`, the IC50 in series [1] is 0.006 µM.

As to `CNC(=O)c1cc(-c2ccc(NC(=O)[C@H](O)c3cc(F)cc(F)c3)cc2C)cnc1N`, the concentration for half-maximal inhibition (IC50) in [1] was 0.014 µM.

Consider `CNc1ncc(-c2ccc(NC(=O)[C@H](O)c3cc(F)cc(F)c3)cc2C)cc1C(=O)NC(C)C`, for which, in series [1], the half-maximal inhibitory concentration (IC50) worked out at 0.129 µM.

With `Cc1cc(NC(=O)[C@H](O)c2ccccc2)ccc1-c1cnc(N)c(C(=O)NC(C)C)c1`, the half-inhibitory concentration (IC50) in [1] is 0.009 µM.

Consider `Cc1cc(NC(=O)[C@](C)(O)c2ccccc2)ccc1-c1cnc(N)c(C(=O)NC(C)C)c1`, for which the IC50 in [1] amounted to 0.13 µM.

Turning to `Cc1cc(NC(=O)[C@H](N)c2ccccc2)ccc1-c1cnc(N)c(C(=O)NC(C)C)c1`, the half-inhibitory concentration (IC50) in [1] came to 1.46 µM.

Regarding `CCNC(=O)c1cc(-c2ccc(NC(=O)[C@H](O)c3cc(F)cc(F)c3)cc2C)cnc1N`, the IC50 in series [1] is 0.004 µM. The compound also displayed a solubility in series [2] of 48 µM (≈ 21.1 µg/mL). Besides, the Papp A→B in series [3] came out at 14 ×10⁻⁶ cm/s. Further, the efflux ratio in series [4] turned out to be 3.3. The fraction unbound in series [5] was 0.019; in series [6] it was 0.033; in [7], 0.028; in series [8], 0.029. Moreover, the half-life stood at 1.97 h in series [9], 0.567 h in [10], 1.15 h in series [11] and 14.6 h in series [12].

Turning to `CO[C@@H](C(=O)Nc1ccc(-c2cnc(N)c(C(=O)NC(C)C)c2)c(C)c1)c1ccccc1`, the IC50 in [1] was above 1 µM.

For the compound `Cc1cc(NC(=O)Nc2ccccc2)ccc1-c1cnc(N)c(C(=O)NC(C)C)c1`, the IC50 in [1] is 1.35 µM.

`Cc1cc(NC(=O)[C@H](O)c2cc(F)cc(F)c2)ccc1-c1cnc(N)c(C(=O)NC(C)C)n1`: the half-inhibitory concentration (IC50) in series [1] was determined as 0.005 µM.

In the case of `Cc1cc(NC(=O)[C@H](O)c2cc(F)cc(F)c2)ccc1-c1cc(C(=O)NC(C)C)c(N)nn1`, the half-maximal inhibitory concentration (IC50) in [1] is above 1 µM.

Consider `Cc1cc(NC(=O)[C@H](O)c2cc(F)cc(F)c2)ccc1-c1cnc(N)c(C(=O)NC2CC2)c1`, for which the IC50 in [1] is 0.003 µM. In series [2], this compound gave a solubility of 37 µM (≈ 16.7 µg/mL). Also, in [3], the Papp A→B was determined as 14 ×10⁻⁶ cm/s. In addition, the efflux ratio in series [4] was 4.6. In addition, the fraction unbound in series [5] is 0.024; in series [6] it was 0.028; in series [7], 0.028; in series [8], 0.029. Further, the half-life in [9] was 7.92 h; in series [10] it was 2.18 h; in [11], 0.8 h; in series [12], above 16.7 h.

By IC50 is commonly meant the concentration that gives 50% inhibition. Usually solubility stands for the concentration that dissolves in the medium under given conditions. A low value points to a poorly soluble substance. The efflux ratio is the permeability from basolateral to apical divided by that in the opposite direction, in the common usage. As a reminder, the half-life is how long it takes for the measured level to halve.
